Reference: ChEMBL document CHEMBL3638861, “Phenyl-substituted 2-imino-3-methyl pyrrolo pyrimidinone compounds as BACE-1 inhibitors, compositions, and their use” (2013)

Molecular target: Beta-secretase 1 (Homo sapiens, UniProt P56817)
Assay: Time-Resolved FRET Assay: A homogeneous time-resolved FRET assay was used to determine IC50 values for inhibitors of the soluble human BACE1 catalytic domain. The assay monitored the increase of 620nm fluorescence that resulted from BACE1 cleavage of an APPswedish APPswe mutant peptide FRET substrate (QSY7-EISEVNLDAEFC-Europium-amide).

Sequence of Beta-secretase 1 (P56817 whole entry, the tested form may be a part): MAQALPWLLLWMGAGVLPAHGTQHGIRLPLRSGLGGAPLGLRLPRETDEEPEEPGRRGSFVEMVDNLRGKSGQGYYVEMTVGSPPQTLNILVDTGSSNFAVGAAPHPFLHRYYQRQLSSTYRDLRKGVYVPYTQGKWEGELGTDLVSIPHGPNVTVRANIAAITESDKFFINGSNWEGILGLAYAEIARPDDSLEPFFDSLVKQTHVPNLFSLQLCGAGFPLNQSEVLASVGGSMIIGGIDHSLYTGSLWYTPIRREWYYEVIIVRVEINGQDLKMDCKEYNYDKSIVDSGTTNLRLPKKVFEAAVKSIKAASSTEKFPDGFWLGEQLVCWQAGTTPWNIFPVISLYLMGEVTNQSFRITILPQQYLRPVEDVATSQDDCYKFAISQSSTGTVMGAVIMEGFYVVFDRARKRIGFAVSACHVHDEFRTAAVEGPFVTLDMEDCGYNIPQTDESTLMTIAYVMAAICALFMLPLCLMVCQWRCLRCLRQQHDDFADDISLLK

`COc1nc(N2C[C@H]3C(=O)N(C)C(=N)N[C@@]3(c3cc(F)ccc3Cl)C2)nc(C)c1F` showed an IC50 of 42 nM and a Ki of 8.9 nM.
